According to publication PMC9030254, “Target Hopping from Protein Kinases to PXR: Identification of Small-Molecule Protein Kinase Inhibitors as Selective Modulators of Pregnane X Receptor from TüKIC Library” (Cells, 2022):

Assays:
Assay in all cases: Kinase profiling
Assay type in all cases: biochemical
[1] = target: T1, CDK19/CycC (Homo sapiens, UniProt Q9BWU1)
T1 construct: purchased ProQinase (Freiburg, Germany)
Description: (§1) The analysis was performed by ProQinase (Freiburg, Germany).

[2] = target: T2, LYN (Homo sapiens, UniProt P07948)
T2 construct: purchased ProQinase (Freiburg, Germany)
Description: as §1

[3] = target: T3, ERK7 (Homo sapiens, UniProt Q8TD08)
T3 construct: purchased ProQinase (Freiburg, Germany)
T3 sequence (Q8TD08 1-544): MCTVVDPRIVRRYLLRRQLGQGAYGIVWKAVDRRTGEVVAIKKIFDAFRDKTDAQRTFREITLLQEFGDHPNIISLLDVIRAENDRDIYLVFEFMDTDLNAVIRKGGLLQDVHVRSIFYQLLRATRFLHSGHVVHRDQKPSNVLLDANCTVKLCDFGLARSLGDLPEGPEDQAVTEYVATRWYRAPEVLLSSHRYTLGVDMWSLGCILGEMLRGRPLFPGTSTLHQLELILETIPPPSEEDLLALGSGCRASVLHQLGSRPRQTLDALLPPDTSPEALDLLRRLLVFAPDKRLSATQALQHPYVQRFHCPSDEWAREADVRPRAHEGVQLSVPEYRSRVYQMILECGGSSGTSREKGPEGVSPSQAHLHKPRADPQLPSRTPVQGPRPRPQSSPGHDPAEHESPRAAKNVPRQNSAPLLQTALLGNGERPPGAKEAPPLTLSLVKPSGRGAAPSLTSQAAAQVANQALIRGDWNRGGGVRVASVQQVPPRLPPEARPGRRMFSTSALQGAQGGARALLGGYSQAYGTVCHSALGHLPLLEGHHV
Description: as §1

[4] = target: T4, FGFR4 (Homo sapiens, UniProt P22455)
T4 construct: purchased ProQinase (Freiburg, Germany)
Description: as §1

[5] = target: T5, MST3 (Homo sapiens, UniProt Q9Y6E0)
T5 construct: purchased ProQinase (Freiburg, Germany)
Description: as §1

[6] = target: T6, DDR2 (Homo sapiens, UniProt Q16832)
T6 construct: purchased ProQinase (Freiburg, Germany)
T6 sequence (Q16832 22-855): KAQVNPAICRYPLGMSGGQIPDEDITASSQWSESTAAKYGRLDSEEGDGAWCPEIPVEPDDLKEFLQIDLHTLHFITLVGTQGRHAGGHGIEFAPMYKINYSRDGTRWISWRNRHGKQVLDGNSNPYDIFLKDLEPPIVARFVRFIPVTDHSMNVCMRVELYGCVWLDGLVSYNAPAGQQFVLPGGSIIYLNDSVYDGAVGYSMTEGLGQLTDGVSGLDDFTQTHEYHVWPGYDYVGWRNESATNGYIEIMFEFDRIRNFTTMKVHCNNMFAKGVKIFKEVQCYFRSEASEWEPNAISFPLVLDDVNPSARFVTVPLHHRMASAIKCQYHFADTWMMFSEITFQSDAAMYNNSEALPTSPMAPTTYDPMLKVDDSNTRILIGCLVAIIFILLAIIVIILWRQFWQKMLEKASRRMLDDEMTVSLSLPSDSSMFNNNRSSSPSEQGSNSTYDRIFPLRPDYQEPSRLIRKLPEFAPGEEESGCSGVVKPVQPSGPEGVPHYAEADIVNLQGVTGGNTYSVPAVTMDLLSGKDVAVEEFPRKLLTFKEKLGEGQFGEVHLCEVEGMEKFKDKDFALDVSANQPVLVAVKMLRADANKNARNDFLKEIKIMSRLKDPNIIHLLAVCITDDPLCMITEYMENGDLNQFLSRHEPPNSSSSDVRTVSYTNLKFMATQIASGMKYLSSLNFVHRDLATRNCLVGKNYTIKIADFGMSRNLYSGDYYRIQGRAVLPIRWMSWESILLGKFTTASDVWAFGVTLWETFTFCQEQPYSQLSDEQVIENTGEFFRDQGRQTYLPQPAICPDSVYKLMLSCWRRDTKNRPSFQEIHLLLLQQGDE
Description: as §1

[7] = target: T7, CAMK2A (Homo sapiens, UniProt Q9UQM7)
T7 construct: purchased ProQinase (Freiburg, Germany)
Description: as §1

[8] = target: T8, TSF1 (Homo sapiens, UniProt O75716)
T8 construct: purchased ProQinase (Freiburg, Germany)
Description: as §1

[9] = target: T9, EPHB2 (Homo sapiens, UniProt P29323)
T9 construct: purchased ProQinase (Freiburg, Germany)
T9 sequence (P29323 19-1055): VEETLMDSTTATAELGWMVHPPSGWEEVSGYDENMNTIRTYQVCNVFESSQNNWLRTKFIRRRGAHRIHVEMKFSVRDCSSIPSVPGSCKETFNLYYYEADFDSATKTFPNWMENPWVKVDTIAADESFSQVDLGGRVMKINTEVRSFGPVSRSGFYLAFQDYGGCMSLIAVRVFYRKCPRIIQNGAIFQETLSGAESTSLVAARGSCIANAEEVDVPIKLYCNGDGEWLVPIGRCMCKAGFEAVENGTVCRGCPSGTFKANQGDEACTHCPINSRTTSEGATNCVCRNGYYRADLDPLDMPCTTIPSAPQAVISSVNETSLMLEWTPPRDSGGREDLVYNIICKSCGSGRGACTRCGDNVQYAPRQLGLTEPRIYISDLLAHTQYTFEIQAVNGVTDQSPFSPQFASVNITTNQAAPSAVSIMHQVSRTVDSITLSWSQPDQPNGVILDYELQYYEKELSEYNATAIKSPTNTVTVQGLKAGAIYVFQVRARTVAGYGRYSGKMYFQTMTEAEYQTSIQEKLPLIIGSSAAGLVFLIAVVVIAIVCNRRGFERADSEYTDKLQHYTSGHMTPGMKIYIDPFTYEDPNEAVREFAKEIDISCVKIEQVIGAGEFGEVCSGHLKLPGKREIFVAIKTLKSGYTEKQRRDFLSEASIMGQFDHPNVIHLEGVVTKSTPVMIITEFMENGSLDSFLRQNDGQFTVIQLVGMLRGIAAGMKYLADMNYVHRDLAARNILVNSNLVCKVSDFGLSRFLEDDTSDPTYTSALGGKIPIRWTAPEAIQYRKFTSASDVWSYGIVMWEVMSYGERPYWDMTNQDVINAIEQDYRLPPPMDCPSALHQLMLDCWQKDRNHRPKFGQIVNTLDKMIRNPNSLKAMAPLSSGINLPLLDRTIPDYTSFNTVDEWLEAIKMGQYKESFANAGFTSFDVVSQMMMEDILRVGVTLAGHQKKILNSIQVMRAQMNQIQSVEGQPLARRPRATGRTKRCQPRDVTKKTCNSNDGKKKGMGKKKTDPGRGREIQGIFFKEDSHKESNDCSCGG
Description: as §1

T1 sequence (Q9BWU1 whole entry): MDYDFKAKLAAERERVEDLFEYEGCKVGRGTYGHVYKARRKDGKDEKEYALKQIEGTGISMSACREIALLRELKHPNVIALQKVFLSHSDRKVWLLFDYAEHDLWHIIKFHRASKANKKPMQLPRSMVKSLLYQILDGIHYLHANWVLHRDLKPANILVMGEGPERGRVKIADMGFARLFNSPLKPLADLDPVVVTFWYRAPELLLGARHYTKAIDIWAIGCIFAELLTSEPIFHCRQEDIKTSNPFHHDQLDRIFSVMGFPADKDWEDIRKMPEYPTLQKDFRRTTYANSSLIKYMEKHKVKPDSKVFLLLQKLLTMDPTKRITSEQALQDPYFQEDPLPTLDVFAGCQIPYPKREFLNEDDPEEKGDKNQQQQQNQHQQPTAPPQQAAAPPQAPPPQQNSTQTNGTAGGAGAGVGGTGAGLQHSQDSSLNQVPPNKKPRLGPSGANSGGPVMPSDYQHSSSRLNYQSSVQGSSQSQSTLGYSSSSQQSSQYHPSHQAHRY
T1 sequence (P24863 whole entry partner): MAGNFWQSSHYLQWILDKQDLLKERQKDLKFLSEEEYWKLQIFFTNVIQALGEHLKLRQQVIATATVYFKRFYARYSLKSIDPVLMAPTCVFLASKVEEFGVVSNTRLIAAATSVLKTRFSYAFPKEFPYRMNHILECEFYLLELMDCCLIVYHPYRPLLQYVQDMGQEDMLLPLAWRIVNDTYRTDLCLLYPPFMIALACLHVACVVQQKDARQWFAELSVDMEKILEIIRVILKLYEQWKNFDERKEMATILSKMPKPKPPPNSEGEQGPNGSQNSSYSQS
T5 sequence (Q9Y6E0 whole entry): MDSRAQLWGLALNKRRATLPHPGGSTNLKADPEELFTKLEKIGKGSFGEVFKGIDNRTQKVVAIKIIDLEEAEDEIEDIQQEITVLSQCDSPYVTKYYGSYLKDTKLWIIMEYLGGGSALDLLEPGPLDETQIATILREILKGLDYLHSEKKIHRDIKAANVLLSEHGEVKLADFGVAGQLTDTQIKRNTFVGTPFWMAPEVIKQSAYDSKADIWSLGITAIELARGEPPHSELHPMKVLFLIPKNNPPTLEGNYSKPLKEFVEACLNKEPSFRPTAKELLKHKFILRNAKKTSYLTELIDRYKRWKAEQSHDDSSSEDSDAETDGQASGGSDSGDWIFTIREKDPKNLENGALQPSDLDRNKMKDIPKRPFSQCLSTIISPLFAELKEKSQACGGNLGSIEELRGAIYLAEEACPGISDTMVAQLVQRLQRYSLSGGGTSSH
T2 sequence (P07948 whole entry): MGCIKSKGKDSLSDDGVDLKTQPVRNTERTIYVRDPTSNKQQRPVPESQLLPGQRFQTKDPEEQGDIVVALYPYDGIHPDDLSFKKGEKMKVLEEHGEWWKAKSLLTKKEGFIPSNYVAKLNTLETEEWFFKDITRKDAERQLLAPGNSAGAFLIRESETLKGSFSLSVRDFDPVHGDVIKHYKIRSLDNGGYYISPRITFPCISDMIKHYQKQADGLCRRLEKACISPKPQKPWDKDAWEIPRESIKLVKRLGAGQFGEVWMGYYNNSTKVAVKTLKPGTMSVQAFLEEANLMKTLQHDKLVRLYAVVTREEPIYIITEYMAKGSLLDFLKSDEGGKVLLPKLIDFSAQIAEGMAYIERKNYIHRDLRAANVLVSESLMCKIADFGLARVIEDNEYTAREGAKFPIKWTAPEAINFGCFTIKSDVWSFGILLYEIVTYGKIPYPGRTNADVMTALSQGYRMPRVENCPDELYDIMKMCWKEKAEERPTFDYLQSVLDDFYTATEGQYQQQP
T7 sequence (Q9UQM7 whole entry): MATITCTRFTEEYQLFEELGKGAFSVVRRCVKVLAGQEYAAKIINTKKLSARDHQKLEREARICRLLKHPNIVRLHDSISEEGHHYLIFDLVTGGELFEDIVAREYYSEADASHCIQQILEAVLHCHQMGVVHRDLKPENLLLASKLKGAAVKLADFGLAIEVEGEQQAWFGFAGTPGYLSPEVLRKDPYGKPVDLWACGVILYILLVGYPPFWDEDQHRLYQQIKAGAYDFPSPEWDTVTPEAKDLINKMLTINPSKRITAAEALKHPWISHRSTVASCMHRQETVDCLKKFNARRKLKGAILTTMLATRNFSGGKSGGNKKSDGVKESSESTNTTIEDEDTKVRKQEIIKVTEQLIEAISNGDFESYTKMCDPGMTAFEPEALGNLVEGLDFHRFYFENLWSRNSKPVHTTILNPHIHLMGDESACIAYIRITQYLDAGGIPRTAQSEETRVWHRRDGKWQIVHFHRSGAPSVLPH
T4 sequence (P22455 22-802): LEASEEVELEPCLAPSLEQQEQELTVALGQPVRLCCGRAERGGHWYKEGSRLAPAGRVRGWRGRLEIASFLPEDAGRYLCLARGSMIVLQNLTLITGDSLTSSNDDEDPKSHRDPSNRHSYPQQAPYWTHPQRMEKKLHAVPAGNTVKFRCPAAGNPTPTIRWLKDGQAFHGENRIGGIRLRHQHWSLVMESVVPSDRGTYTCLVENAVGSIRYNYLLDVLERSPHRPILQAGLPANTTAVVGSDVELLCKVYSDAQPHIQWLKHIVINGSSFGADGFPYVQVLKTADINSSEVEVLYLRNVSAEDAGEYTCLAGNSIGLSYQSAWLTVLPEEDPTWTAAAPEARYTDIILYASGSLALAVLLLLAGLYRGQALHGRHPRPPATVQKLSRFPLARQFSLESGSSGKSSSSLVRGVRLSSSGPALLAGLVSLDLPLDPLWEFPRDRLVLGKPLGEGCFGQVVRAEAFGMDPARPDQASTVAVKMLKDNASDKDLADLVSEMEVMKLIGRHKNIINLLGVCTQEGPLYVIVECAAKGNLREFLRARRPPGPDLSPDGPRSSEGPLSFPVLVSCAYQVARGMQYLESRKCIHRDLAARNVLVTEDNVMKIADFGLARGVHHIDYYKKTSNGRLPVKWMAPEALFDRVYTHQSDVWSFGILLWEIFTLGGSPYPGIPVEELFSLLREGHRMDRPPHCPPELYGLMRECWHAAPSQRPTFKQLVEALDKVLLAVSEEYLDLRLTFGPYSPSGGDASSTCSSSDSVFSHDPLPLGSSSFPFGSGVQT
T8 sequence (O75716 whole entry): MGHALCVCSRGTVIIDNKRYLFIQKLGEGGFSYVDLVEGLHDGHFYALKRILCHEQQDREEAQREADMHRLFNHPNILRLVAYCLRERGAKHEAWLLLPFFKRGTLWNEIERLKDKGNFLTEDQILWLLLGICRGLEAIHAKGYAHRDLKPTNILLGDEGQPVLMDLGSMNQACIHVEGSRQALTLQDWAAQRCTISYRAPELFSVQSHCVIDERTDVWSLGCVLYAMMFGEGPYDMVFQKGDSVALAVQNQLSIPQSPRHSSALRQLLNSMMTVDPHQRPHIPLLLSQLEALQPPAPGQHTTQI

| SMILES | Residual activity ([1]; 1.0E-05 M) | Residual activity ([1]; 1.0E-06 M) | Residual activity ([2]; 1.0E-05 M) | Residual activity ([2]; 1.0E-06 M) | Residual activity ([3]; 1.0E-05 M) | Residual activity ([3]; 1.0E-06 M) | Residual activity ([4]; 1.0E-05 M) | Residual activity ([4]; 1.0E-06 M) | Residual activity ([5]; 1.0E-05 M) | Residual activity ([5]; 1.0E-06 M) | Residual activity ([6]; 1.0E-05 M) | Residual activity ([6]; 1.0E-06 M) | Residual activity ([7]; 1.0E-05 M) | Residual activity ([7]; 1.0E-06 M) | Residual activity ([8]; 1.0E-05 M) | Residual activity ([8]; 1.0E-06 M) | Residual activity ([9]; 1.0E-05 M) | Residual activity ([9]; 1.0E-06 M) |
| --- | --- | --- | --- | --- | --- | --- | --- | --- | --- | --- | --- | --- | --- | --- | --- | --- | --- | --- |
| O=C(Cc1ccccc1)Nc1ccc(F)c(Nc2ccc3c(c2)CCCCC3=O)c1 [Compound 100] | 77 % of control | 81 % of control | 95 % of control | 96 % of control | 85 % of control | 96 % of control | 67 % of control | 96 % of control | 114 % of control | 122 % of control | 71 % of control | 94 % of control | 94 % of control | 96 % of control | 88 % of control | 107 % of control | 86 % of control | 93 % of control |
| O=C(Nc1ccc(F)c(Nc2ccc3c(c2)CCCCC3=O)c1)c1cccc(F)c1 [Compound 109] | 74 % of control | 83 % of control | 88 % of control | 104 % of control | 98 % of control | 99 % of control | 79 % of control | 90 % of control | 103 % of control | 106 % of control | 64 % of control | 93 % of control | 91 % of control | 95 % of control | 94 % of control | 97 % of control | 84 % of control | 86 % of control |
